Measurements from patent publication US20090233921A1, “THERAPEUTIC CYCLOPENTANE DERIVATIVES” (ALLERGAN, INC., priority 2008, published 2009).

Test system: lashes and adjacent hairs of patients having glaucoma
Assay: Clinical observation of lashes and adjacent hairs in glaucoma patients treated in one eye
Assay type: in vivo, human
From the text: In the course of treating patients having glaucoma, treatment may only be appropriate in one eye. […] The lash appearance on the lids of the treated eyes would have appeared quite attractive if it represented a bilateral phenomenon. As a result of its asymmetric nature, the long lashes on one side could be construed as disturbing from a cosmetic standpoint. A systemic examination was preformed as a result of the asymmetric phenomenon. It soon became apparent that this altered appearance was not an isolated finding.
The changes in the lashes were apparent on gross inspection in several patients once attention was focused on the issue. In those with light colored hair and lashes, the differences were only seen easily with the aid of the high magnification and lighting capabilities of the slit lamp biomicroscope. In the course of glaucoma follow-up examination, attention is generally immediately focused on the eye itself. As a result of the high power magnification needed only one eye is seen at a time and the eye is seen at a high enough power that the lashes are not in focus. At these higher powers, any lash asymmetry between the two eyes is not likely to be noticed except by careful systematic comparison of the lashes and adjacent hairs of the eyelids of the two eyes. […]

CCNC(=O)CCC/C=C\C[C@@H]1[C@@H](/C=C/[C@@H](O)CCc2ccccc2)[C@H](O)C[C@@H]1O [bimatoprost]
lash appearance, treated eye versus non-treated eye (a patient treated in one eye): longer, thicker, and fuller in the treated eye than in the non-treated eye | differences in lashes and adjacent hairs of the treated side (all patients taking the drug on a unilateral basis for longer than 6 months): Definite differences could be identified to varying degrees
